Counter-ions that a name gives are not always drawn. Like-named read-outs stand apart in the source and are kept apart here.
What was measured:
Type-B CCK receptor = biological target: T1, Type-B CCK receptor (Cavia porcellus, UniProt H0VZC5); experiment: Radioligand binding, [^125 I]-BH-CCK8, Type-B CCK receptor (cerebral cortical membranes); design: species or system guinea pig
T1 construct: cortex and pancreas were removed and rinsed with ice cold saline; from tissue; host or cells: guinea pig cerebral cortex, membranes
T1 sequence (H0VZC5 1-426): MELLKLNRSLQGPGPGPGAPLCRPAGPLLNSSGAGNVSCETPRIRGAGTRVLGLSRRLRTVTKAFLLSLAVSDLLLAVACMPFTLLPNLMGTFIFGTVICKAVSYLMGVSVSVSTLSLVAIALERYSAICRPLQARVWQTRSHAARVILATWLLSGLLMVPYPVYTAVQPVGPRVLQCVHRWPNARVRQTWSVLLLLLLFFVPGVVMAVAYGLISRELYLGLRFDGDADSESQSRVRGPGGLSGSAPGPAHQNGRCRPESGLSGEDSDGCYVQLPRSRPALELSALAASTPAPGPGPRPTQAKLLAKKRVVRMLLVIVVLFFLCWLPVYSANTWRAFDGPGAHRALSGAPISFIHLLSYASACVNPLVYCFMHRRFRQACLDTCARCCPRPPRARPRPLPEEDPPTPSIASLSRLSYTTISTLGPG
Text: (§1) CCK8 [Asp-Tyr(SO3 H)-Met-Gly-Trp-Met-Asp-Phe-NH2 ] was purchased from Beckman Instruments (Palo Alto, Ca/) and Peptide International (Louisville, Ky.). Chymostatin, L-Try-Gly, puromycin, bestatin, EGTA, HEPES and BSA were purchased from Sigma Chemical Co. (St. Louis, Mo.). [^125 I]BH-CCK8 (specific activity, 2200 Ci/mmol) and Aquasol 2 scintillation cocktail were obtained from New England Nuclear (Boston, Ma.). Male guinea pigs, 250 to 325 g, were obtained from Scientific Small Animal Laboratory and Farm (Arlington Heights, Ill.). Collagenase, 300 units per mg, was purchased from Worthington (Frehold, N.J.)
(§2) 1. Guinea Pig Cerebral Cortical and Pancreatic Membrane Preparations
(§3) Cortical and pancreatic membrances were prepared as described (Lin and Miller; J. Pharmacol. Exp. Ther. 232, 775-780, 1985). In brief, cortex and pancreas were removed and rinsed with ice cold saline. Visible fat and connective tissues were removed from the pancreas. Tissues were weighed and homogenized separately in approximately 25 mL of ice-cold 50 mM Tris-HCl buffer, pH 7.4 at 4° C., with a Brinkman Polytron for 30 sec, setting 7. The homogenates were centrifuged for 10 min at 1075×g and pellets were discarded. The supernatants were saved and centrifuged at 38,730×g for 20 min. The resultant pellets were rehomogenized in 25 mL of 50 mM Tris-HCl buffer with a Teflon-glass homogenizer, 5 up and down strokes. The homogenates were centrifuged again at 38,730×g for 20 min. Pellets were then resuspended in 20 mM HEPES, containing 1 mM EGTA., 118 mM NaCl, 5 mM MgCl2, 100 microM bestatin, 3 microM phosphoramidon, pH 7.4 at 22° C., with a Teflon-glass homogenizer, 15 up and down strokes. Resuspension volume for the cortex was 15-18 mL per gm of original wet weight and 60 mL per gm for the pancreas.
^125 I]Bolton-Hunter CCK8, and test compounds were diluted with HEPES-EGTA-salt buffer (see above) containing 0.5% bovine serum albumin (BSA). To 1 mL Skatron polystyrene tubes were added 25 microliters of test compounds, 25 miroliters of [^125 I]BH-CCK8, and 200 microliters of membrane suspension. The final BSA concentration was 0.1%. The cortical tissues were incubated at 30° C. for 150 min and pancreatic tissues were incubated at 37° C. for 30 min. Incubations were terminated by filtration using Skatron Cell Harvester and SS32 microfiber filter mats. […] IC50 's were determined from the Hill analysis.

Type-A CCK receptor = biological target: T2, Type-A CCK receptor (Cavia porcellus, UniProt Q63931); experiment: Radioligand binding, [^125 I]-BH-CCK8, Type-A CCK receptor (pancreatic membranes); design: species or system guinea pig
T2 construct: cortex and pancreas were removed and rinsed with ice cold saline; from tissue; host or cells: guinea pig pancreas, membranes
T2 sequence (Q63931 1-430): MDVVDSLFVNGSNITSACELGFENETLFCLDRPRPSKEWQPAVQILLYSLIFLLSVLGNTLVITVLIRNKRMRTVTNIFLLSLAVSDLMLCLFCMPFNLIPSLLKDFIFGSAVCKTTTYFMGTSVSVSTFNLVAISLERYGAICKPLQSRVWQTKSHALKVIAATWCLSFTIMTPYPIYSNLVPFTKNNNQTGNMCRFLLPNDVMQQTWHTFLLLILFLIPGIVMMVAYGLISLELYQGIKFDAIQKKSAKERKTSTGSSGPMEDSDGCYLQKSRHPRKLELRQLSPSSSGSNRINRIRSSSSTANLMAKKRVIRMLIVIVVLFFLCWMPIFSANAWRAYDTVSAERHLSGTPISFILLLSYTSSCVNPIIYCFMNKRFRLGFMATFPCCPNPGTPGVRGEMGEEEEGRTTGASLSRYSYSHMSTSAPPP
Text: as §1, §2, §3
^125 I]Bolton-Hunter CCK8, and test compounds were diluted with HEPES-EGTA-salt buffer (see above) containing 0.5% bovine serum albumin (BSA). To 1 mL Skatron polystyrene tubes were added 25 microliters of test compounds, 25 miroliters of [^125 I]BH-CCK8, and 200 microliters of membrane suspension. The final BSA concentration was 0.1%. The cortical tissues were incubated at 30° C. for 150 min and pancreatic tissues were incubated at 37° C. for 30 min. Incubations were terminated by filtration using Skatron Cell Harvester and SS32 microfiber filter mats. The specific binding of [^125 I]BH-CCK8, defined as the difference between binding in the absence and presence of 1 microM CCK8, was 85 90% of pancreas. IC50 's were determined from the Hill analysis.

guinea pig acini = experiment: Inhibition of CCK8-stimulated amylase release from acini; type: cell-based; conditions: Cavia porcellus, 0.5 h, CCK8 3×10^-10 M, 37° C., 30 min
Experimental: Protocol for Amylase This assay was performed using the modified protocol of Lin et al., J. Pharmacol. Exp. Ther. 236, 734, 1986. 1. Guinea Pig Acini Preparation Guinea pig acini were prepared by the method of Bruzzone et al. (Biochem. J. 226, 621-624, 1985) as follows. Pancreas was dissected out and connective tissues and blood vessels were removed. The pancreas was cut into small pieces (2mm) by a scissor and placed in a 15 mL conical plastic tube containing 2.5 mL of Krebs Ringer HEPES (KRH) buffer plus 400 units per mL of collagenase. The composition of the KRH buffer was: HEPES, 12.5 mM: NaCl, 118 mM; KCI, 4.8 mM; CaCl2, 1 mM; […]; MgSO4, 1.2 mM; NaHCO3, 5 mM; glucose, 10 mM, pH 7.4. The buffer was supplemented with MEM vitamins, 1% MEM amino acids and 0.001% aprotinin. The tube was shaken by hand until the suspension appeared homogeneous, usually 5 to 6 min. 5 mL of the KRH, without collagenase and with 0.1% BSA, were added and the tube was centrifuged at 50×g for 35 sec. The supernatant was discarded and 6 mL of the KRH were added to the cell pellet. […] This wash procedure was repeated once. The cell pellet from the last centrifugation step was then resuspended in 15 mL of KRH containing 0.1% BSA. The contents were filtered through a dual nylon mesh, size 275 and 75 micrometers. The filtrate, containing the acini, were centrifuged at 50×for 3 min. The acini were then resuspended in 5 mL of KRH-BSA buffer for 30 min at 37° C., under 100% O2, with a change of fresh buffer at 15 min. 2. Amylase Assay After the 30 min incubation time, the acini were resuspended in 100 volumes of KRH-BSA buffer, containing 3 microM phosphoramidon and 100 microM bestatin. […] The final assay volume was 500 microliters. Tubes were vortexed and placed in a 37° C. water bath, under 100% O2, for 30 min. Afterward, tubes were centrifuged at 10,000 g for 1 min. […] The results of this assay are […]

CCK8 = experiment: Inhibition of CCK induced gastric emptying (charcoal meal); type: in vivo; conditions: 100 mg/kg p.o., CCK8 80 micrograms/kg s.c.
Experimental: Inhibition Of CCK Induced Gastric Emptying
Three fasted mice were dosed (p.o.) with the test compound. CCK8 (80 micrograms/kg s.c.) was administered within 60 minutes and charcoal meal (0.1 mL of 10% suspension) was given orally 5 minutes later. The animals were sacrificed within an additional 5 minutes.
Gastric emptying, defined as the presence of charcoal within the intestine beyond the pyloric sphincter, is inhibited by CCK8. Gastric emptying observed in more than 1 or 3 mice (greater than 1) indicates antagonism of CCK8.

[1] = guinea pig pancreatic membranes, 37° C., 30 min, IC50 from Hill analysis

SMILES | IC50 (Type-B CCK receptor) | IC50 (Type-A CCK receptor) | IC50 (Type-A CCK receptor; [1]) | IC50 (guinea pig acini) | Gastric emptying observed (mice out of three; more than 1 indicates antagonism of CCK8) (CCK8)
CCCCCN(CCCCC)C(=O)[C@@H](CCC(=O)OC)NC(=O)c1cc2ccccc2[nH]1 [Example 23, N-(2'-Indolylcarbonyl)-(γ-methyl ester)-R-Glu-di-n-pentylamide] | 3.6 µM | 0.098 µM | – | 1.3 µM | –
CCCCCN(CCCCC)C(=O)[C@@H](CCC(=O)O)NC(=O)c1c[nH]c2ccccc12 [Example 12, N-(3'-Indolylcarbonyl)-R-Glu-N^α,N^α -di-n-penylamide] | 3.2 µM | – | 0.26 µM | 0.83 µM | –
CCCCCN(CCCCC)C(=O)[C@@H](CCC(=O)O)NC(=O)c1cc2ccccc2[nH]1 [Example 4, N-(2,-Indolylcarbonyl)-R-Glu-N^α,N^α -di-n-pentylamide] | – | 0.02 µM | – | 0.022 µM | –
CCCCCN(CCCCC)C(=O)[C@H](CCC(=O)O)NC(=O)c1cc2ccccc2[nH]1 [Example 8, N-(2'-Indolylcarbonyl)-S-Glu-N^α,N^α -di-n-pentylamide] | – | – | 0.2 µM | 0.59 µM | –
CCCCCN(CCCCC)C(=O)[C@@H](CCC(=O)O)NC(=O)c1cnc2ccccc2c1 [Example 15, N-(3'-Quinolylcarbonyl)-R-Glu-N^α,N^α -di-n-pentylamide] | 3.5 µM | 0.0054 µM | – | 0.016 µM | –
CCCCCN(CCCCC)C(=O)[C@@H](CCC(=O)O)NC(=O)c1cnc2ccccc2c1 [Example 118, N-(3'-Quinolylcarbonyl)-R-Glu-N^α,N^α -di-n-pentylamideDicyclohexylamine salt] | – | – | – | – | three out of three
CCCCCN(CCCCC)C(=O)[C@@H](CC(=O)O)NC(=O)c1cc2ccccc2[nH]1 [Example 19, N-(2'-Indolylcarbonyl)-R-Asp-N^α,N^α -di-n-pentylamide] | 2.6 µM | 0.027 µM | – | 0.055 µM | –

The next lines start with results.

IC50 (Type-B CCK receptor) | IC50 (Type-A CCK receptor) | IC50 (Type-A CCK receptor; [1]) | SMILES | IC50 (guinea pig acini) | Gastric emptying observed (mice out of three; more than 1 indicates antagonism of CCK8) (CCK8)
~10 µM | 0.03 µM | – | CCCCCN(CCCCC)C(=O)[C@@H](CCC(=O)O)NC(=O)c1ccc2ncccc2c1 [Example 34, N-(6'-Quinolylcarbonyl)-R-Glu-N^α,N^α -d-n-pentylamide] | 0.053 µM | –
5.1 µM | 0.03 µM | – | O=C(O)CC[C@@H](NC(=O)c1cc2ccccc2[nH]1)C(=O)N(Cc1ccccc1)Cc1ccccc1 [Example 29, N-(2'-Indolylcarbonyl)-R-Glu-N^α,N^α -dibenzylamide] | 0.13 µM | –
2 µM | 0.21 µM | – | O=C(O)CC[C@@H](NC(=O)c1cc2ccccc2[nH]1)C(=O)N(c1ccccc1)c1ccccc1 [Example 74, N-(2'-Indolylcarbonyl)-R-Glu-N^α,N^α -diphenylamide] | 1.2 µM | –

Reference: US5128346A, “Derivatives of D-glutamic acid and D-aspartic acid” (priority 1990, dated 1992)
